Measured values published in patent publication US8952024B2, “Herbicidal pyrimidone derivatives” (E I du Pont de Nemours and Company, priority 2009, dated 2015).

What was measured:
Type in all cases: in vivo
[1] = system: Italian ryegrass (Lolium multiflorum); test: Test B pre-/postemergence plant response
In short: (§1)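 Greenhouse herbicide screen. Pre- and postemergence (1- to 4-leaf) spray of compound in solvent/surfactant mixture; loam–sand soil for pre, peat/vermiculite medium for post. Visual control rating 0–100 at 13 to 15 days after treatment.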

[2] = system: galium (catchweed bedstraw, Galium aparine); test: Test B pre-/postemergence plant response; settings: Preemergence; for Galium plant response rating: 125 g ai/ha
In short: as §1

[3] = system: giant foxtail (Setaria faberii); test: Test B pre-/postemergence plant response
In short: as §1

[4] = system: nightshade (eastern black nightshade, Solanum ptycanthum); test: Test B pre-/postemergence plant response; settings: Preemergence; for Nightshade plant response rating: 125 g ai/ha
In short: as §1

[5] = system: ragweed (common ragweed, Ambrosia elatior); test: Test B pre-/postemergence plant response
In short: as §1

[6] = system: sunflower (common oilseed sunflower, Helianthus annuus); test: Test B pre-/postemergence plant response; settings: Preemergence; for Sunflower plant response rating: 125 g ai/ha
In short: as §1

[7] = system: canarygrass (Phalaris minor); test: Test B postemergence plant response; settings: Postemergence; for Canarygrass plant response rating: 250 g ai/ha, scale 0 to 100
In short: (§2)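 Plants grown in peat/vermiculite medium were sprayed postemergence at 2–18 cm height (1- to 4-leaf stage). After 13–15 days in the greenhouse, response was rated visually against untreated controls on a 0–100 scale (0 no effect, 100 complete control).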

[8] = system: chickweed (Stellaria media); test: Test B postemergence plant response; settings: Postemergence; for Chickweed plant response rating: 250 g ai/ha, scale 0 to 100
In short: as §2

[9] = system: windgrass (Apera spica-venti); test: Test B postemergence plant response; settings: Postemergence; for Windgrass plant response rating: 250 g ai/ha, scale 0 to 100
In short: as §2

[10] = system: winter barley (Hordeum vulgare); test: Test B postemergence plant response; settings: Postemergence; for Barley plant response rating: 250 g ai/ha, scale 0 to 100
In short: as §2

[11] = system: barnyardgrass (Echinochloa crus-galli); test: Test B flooded paddy test; settings: for Plant response rating, Flood, Barnyardgrass: 250 g ai/ha, flooded paddy test, visual rating on 0 to 100 scale (0 no effect, 100 complete control) after 13 to 15 days; for Plant response rating, Barnyardgrass: Flood (flooded paddy test), 13 to 15 days
In short: (§3)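 Ratings are visual, 0–100 (100 = complete control), taken versus untreated controls 13 to 15 days after treatment in the greenhouse. Compound went straight into paddy water held 3 cm above soil, applied to 2-leaf-stage plants of four species.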

[12] = system: ducksalad (Heteranthera limosa); test: Test B flooded paddy test; settings: for Plant response rating, Flood, Ducksalad: 250 g ai/ha, flooded paddy test, visual rating on 0 to 100 scale (0 no effect, 100 complete control) after 13 to 15 days; for Plant response rating, Ducksalad: Flood (flooded paddy test), 13 to 15 days
In short: as §3

[13] = system: rice (Oryza sativa); test: Test B flooded paddy test; settings: for Plant response rating, Flood, Rice: 250 g ai/ha, flooded paddy test, visual rating on 0 to 100 scale (0 no effect, 100 complete control) after 13 to 15 days; for Plant response rating, Rice: Flood (flooded paddy test), 13 to 15 days
In short: as §3

[14] = system: umbrella sedge (Cyperus difformis); test: Test B flooded paddy test; settings: for Plant response rating, Flood, Sedge, Umbrella: 250 g ai/ha, flooded paddy test, visual rating on 0 to 100 scale (0 no effect, 100 complete control) after 13 to 15 days; for Plant response rating, Sedge, Umbrella: Flood (flooded paddy test), 13 to 15 days
In short: as §3

[15] = system: goosegrass (Eleusine indica); test: Test B pre-/postemergence plant response; settings: Preemergence, 62 g ai/ha; scale 0 to 100, 0 no effect, 100 complete control
[16] = 250 g ai/ha, Preemergence, 0 to 100 scale
[17] = Postemergence, 31 g ai/ha, scale 0 to 100 (0 no effect, 100 complete control)
[18] = Postemergence, 62 g ai/ha, scale 0 (no effect) to 100 (complete control), 13 to 15 days
[19] = Postemergence, 125 g ai/ha, visual rating after 13 to 15 days, scale 0 (no effect) to 100 (complete control)
[20] = Postemergence, 250 g ai/ha, scale 0 to 100
[21] = Preemergence, 31 g ai/ha, scale 0 to 100 (0 no effect, 100 complete control)
[22] = Preemergence, 62 g ai/ha, scale 0 to 100, 0 no effect, 100 complete control
[23] = Preemergence, 125 g ai/ha, 0 to 100 scale
[24] = 31 g ai/ha, scale 0 to 100 (0 no effect, 100 complete control)
[25] = 62 g ai/ha, scale 0 to 100, 0 no effect, 100 complete control
[26] = 62 g ai/ha, scale 0 (no effect) to 100 (complete control), 13 to 15 days
[27] = 125 g ai/ha, visual rating after 13 to 15 days, scale 0 (no effect) to 100 (complete control)
[28] = 125 g ai/ha, scale 0 to 100 (0 no effect, 100 complete control), 13 to 15 days
[29] = 31 g ai/ha, scale of 0 to 100 where 0 is no effect and 100 is complete control
[30] = 62 g ai/ha, scale 0 to 100, 0 is no effect, 100 is complete control
[31] = 125 g ai/ha, scale 0 to 100, 0 is no effect, 100 is complete control

5-[(2-hydroxy-6-oxo-1-cyclohexen-1-yl)carbonyl]-3-phenyl-2-(3-pyridinyl)-4(3H)-pyrimidone [Compound 113]
Plant response rating, Ryegrass, Italian [1, 16]: 0 | Plant response rating, Ryegrass, Italian [1, 17]: 0 | Plant response rating, Ryegrass, Italian [1, 18]: 0 | Plant response rating, Ryegrass, Italian [1, 19]: 0 | Ryegrass, Italian plant response rating [1, 20]: 20 | Plant response rating, Ryegrass, Italian [1, 21]: 0 | Plant response rating, Ryegrass, Italian [1, 22]: 0 | Ryegrass, Italian plant response rating [1, 23]: 0 | Plant response rating, Galium ([2]; 250 g ai/ha, 0 to 100 scale): 0 | Plant response rating, Galium [2, 24]: 0 | Plant response rating, Galium [2, 25]: 0 | Galium plant response rating ([2]; 0 to 100 scale): 0 | Plant response rating, Foxtail, Giant [3, 16]: 25 | Plant response rating, Foxtail, Giant [3, 17]: 20 | Plant response rating, Foxtail, Giant [3, 18]: 55 | Plant response rating, Foxtail, Giant [3, 19]: 55 | Foxtail, Giant plant response rating [3, 20]: 60 | Plant response rating, Foxtail, Giant [3, 21]: 0 | Plant response rating, Foxtail, Giant [3, 22]: 0 | Foxtail, Giant plant response rating [3, 23]: 0 | Plant response rating, Nightshade ([4]; 250 g ai/ha, 0 to 100 scale): 100 | Plant response rating, Nightshade [4, 24]: 80 | Plant response rating, Nightshade [4, 25]: 90 | Nightshade plant response rating ([4]; 0 to 100 scale): 95 | Plant response rating, Ragweed [5, 16]: 90 | Plant response rating, Ragweed [5, 17]: 50 | Plant response rating, Ragweed [5, 18]: 65 | Plant response rating, Ragweed [5, 19]: 80 | Ragweed plant response rating [5, 20]: 85 | Plant response rating, Ragweed [5, 21]: 0 | Plant response rating, Ragweed [5, 22]: 0 | Ragweed plant response rating [5, 23]: 15 | Plant response rating, Sunflower ([6]; 250 g ai/ha, 0 to 100 scale): 25 | Plant response rating, Sunflower [6, 24]: 0 | Plant response rating, Sunflower [6, 25]: 0 | Sunflower plant response rating ([6]; 0 to 100 scale): 0 | Plant response rating, Canarygrass [7, 24]: 0 | Plant response rating, Canarygrass [7, 26]: 0 | Plant response rating, Canarygrass [7, 27]: 0 | Canarygrass plant response rating [7]: 0 | Plant response rating, Chickweed [8, 24]: 60 | Plant response rating, Chickweed [8, 26]: 80 | Plant response rating, Chickweed [8, 27]: 90 | Chickweed plant response rating [8]: 100 | Plant response rating, Windgrass [9, 24]: 5 | Plant response rating, Windgrass [9, 26]: 5 | Plant response rating, Windgrass [9, 27]: 5 | Windgrass plant response rating [9]: 5 | Plant response rating, Barley [10, 24]: 0 | Plant response rating, Barley [10, 26]: 0 | Plant response rating, Barley [10, 28]: 0 | Barley plant response rating [10]: 0 | Plant response rating, Flood, Barnyardgrass [11]: 0 | Plant response rating, Barnyardgrass [11, 29]: 0 | Plant response rating, Barnyardgrass [11, 30]: 0 | Plant response rating, Barnyardgrass [11, 31]: 0 | Plant response rating, Flood, Ducksalad [12]: 0 | Plant response rating, Ducksalad [12, 29]: 0 | Plant response rating, Ducksalad [12, 30]: 0 | Plant response rating, Ducksalad [12, 31]: 0 | Plant response rating, Flood, Rice [13]: 0 | Plant response rating, Rice [13, 29]: 0 | Plant response rating, Rice [13, 30]: 0 | Plant response rating, Rice [13, 31]: 0 | Plant response rating, Flood, Sedge, Umbrella [14]: 0 | Plant response rating, Sedge, Umbrella [14, 29]: 0 | Plant response rating, Sedge, Umbrella [14, 30]: 0 | Plant response rating, Sedge, Umbrella [14, 31]: 0 | Plant response rating, Goosegrass [15]: 25

5-[(1-ethyl-5-hydroxy-1H-pyrazol-4-yl)carbonyl]-2-phenyl-3-(phenylmethyl)-4(3H)-pyrimidinone [Compound 20]
Plant response rating, Ryegrass, Italian [1, 16]: 0 | Plant response rating, Ryegrass, Italian [1, 17]: 0 | Plant response rating, Ryegrass, Italian [1, 18]: 0 | Plant response rating, Ryegrass, Italian [1, 19]: 5 | Ryegrass, Italian plant response rating [1, 20]: 5 | Plant response rating, Ryegrass, Italian [1, 21]: 0 | Plant response rating, Ryegrass, Italian [1, 22]: 0 | Ryegrass, Italian plant response rating [1, 23]: 0 | Plant response rating, Galium ([2]; 250 g ai/ha, 0 to 100 scale): 50 | Plant response rating, Galium [2, 24]: 0 | Plant response rating, Galium [2, 25]: 5 | Galium plant response rating ([2]; 0 to 100 scale): 30 | Plant response rating, Foxtail, Giant [3, 16]: 0 | Plant response rating, Foxtail, Giant [3, 17]: 15 | Plant response rating, Foxtail, Giant [3, 18]: 45 | Plant response rating, Foxtail, Giant [3, 19]: 60 | Foxtail, Giant plant response rating [3, 20]: 65 | Plant response rating, Foxtail, Giant [3, 21]: 0 | Plant response rating, Foxtail, Giant [3, 22]: 0 | Foxtail, Giant plant response rating [3, 23]: 0 | Plant response rating, Nightshade ([4]; 250 g ai/ha, 0 to 100 scale): 100 | Plant response rating, Nightshade [4, 24]: 50 | Nightshade plant response rating ([4]; 0 to 100 scale): 98 | Plant response rating, Ragweed [5, 16]: 90 | Plant response rating, Ragweed [5, 17]: 80 | Plant response rating, Ragweed [5, 18]: 85 | Plant response rating, Ragweed [5, 19]: 98 | Ragweed plant response rating [5, 20]: 100 | Plant response rating, Ragweed [5, 21]: 65 | Plant response rating, Ragweed [5, 22]: 65 | Ragweed plant response rating [5, 23]: 90 | Plant response rating, Sunflower ([6]; 250 g ai/ha, 0 to 100 scale): 85 | Plant response rating, Sunflower [6, 24]: 50 | Plant response rating, Sunflower [6, 25]: 70 | Sunflower plant response rating ([6]; 0 to 100 scale): 70 | Plant response rating, Canarygrass [7, 24]: 0 | Plant response rating, Canarygrass [7, 26]: 0 | Plant response rating, Canarygrass [7, 27]: 0 | Canarygrass plant response rating [7]: 5 | Plant response rating, Chickweed [8, 24]: 90 | Plant response rating, Chickweed [8, 26]: 98 | Plant response rating, Chickweed [8, 27]: 98 | Chickweed plant response rating [8]: 100 | Plant response rating, Windgrass [9, 24]: 0 | Plant response rating, Windgrass [9, 26]: 0 | Plant response rating, Windgrass [9, 27]: 0 | Windgrass plant response rating [9]: 5 | Plant response rating, Barley [10, 24]: 0 | Plant response rating, Barley [10, 26]: 0 | Plant response rating, Barley [10, 28]: 0 | Barley plant response rating [10]: 0 | Plant response rating, Flood, Barnyardgrass [11]: 0 | Plant response rating, Barnyardgrass [11, 29]: 0 | Plant response rating, Barnyardgrass [11, 30]: 0 | Plant response rating, Barnyardgrass [11, 31]: 0 | Plant response rating, Flood, Ducksalad [12]: 70 | Plant response rating, Ducksalad [12, 29]: 0 | Plant response rating, Ducksalad [12, 30]: 0 | Plant response rating, Ducksalad [12, 31]: 70 | Plant response rating, Flood, Rice [13]: 0 | Plant response rating, Rice [13, 29]: 0 | Plant response rating, Rice [13, 30]: 0 | Plant response rating, Rice [13, 31]: 0 | Plant response rating, Flood, Sedge, Umbrella [14]: 60 | Plant response rating, Sedge, Umbrella [14, 29]: 40 | Plant response rating, Sedge, Umbrella [14, 30]: 50 | Plant response rating, Sedge, Umbrella [14, 31]: 60 | Plant response rating, Goosegrass [15]: 70
